Measurements from US5760022A, “Pharmaceutical composition with improved bioavailability of inositol phosphate” (Perstorp AB, priority 1994, dated 1998).
Structures can show the parent of a compound that is named as a salt.

Assay: bioavailability of IP3 in pigs: concentration of IP3 in blood samples and AUC after intravenous injection, intraduodenal/oral formulation and oral sodium salt
Settings: pig, in vivo
Experimental: The blood samples were assayed for the content of IP3 and these measurements were used for the calculation of the reference data as 100% of the substance is introduced into the blood stream after an intravenous injection. Another five pigs were given the composition comprising the mixture of 2,3-dihydroxypropyl octanoate and IP3 as an intraduodenal dosing. The animals were treated with Atropin and anaesthetized with Hypnodil®/Sedaperone® whereafter a laparotomy was carried out. Blood samples were collected at the time intervals mentioned above and the concentration of IP3 was determined in each sample. By calculating the area under the curve (AUC) from a graph where the concentration versus time is shown and comparing the obtained value with a similar calculation from the data after intravenous injection of the substance the bioavailability for this specific formulation is obtained.
Blood samples were collected at the same time intervals as above and the concentration of IP3 was determined. Following a similar procedure the AUC was determined.
Blood samples were collected and the concentration of IP3 were determined.

O=P(O)(O)O[C@@H]1[C@H](OP(=O)(O)O)[C@H](O)[C@@H](O)[C@H](O)[C@H]1OP(=O)(O)O [sodium salt of IP3, D-myo-inositol-1,2,6-trisphosphate]
Normalized AUC (%): 3%
Normalized AUC (%) (iv): 100%
concentration at 0.25 h (iv): 53.7 µM
concentration at 0.5 h (iv): 40 µM
concentration at 1 h (iv): 21.6 µM
concentration at 1.5 h (iv): 12.1 µM
concentration at 4 h (iv): 2600 nM
concentration at 8 h (iv): 600 nM
conc IP3 (iv, 0 min): 0 µM
concentration at 0.5 h (po): 0.6 µM
concentration at 1.5 h (po): 0.5 µM
concentration at 2 h (po): 600 nM
concentration at 4 h (po): 400 nM
concentration at 6 h (po): 400 nM
conc IP3 (po, 0 min): 0 µM
conc IP3 (po, 480 min): 0 µM
